# Experimental data taken from paper PMC2263054, “Functional evolution of the vitamin D and pregnane X receptors” (BMC Evolutionary Biology, 2007).
# What was measured:
# [1] = tested on: testosterone 6β-hydroxylation activity (CYP3A-like activity); experiment: testosterone hydroxylation (HPLC) in zebrafish primary hepatocytes
# Experimental: (§1) The cells are cultured at 26°C in ambient atmosphere.
# (§2) 100 μL of sample, calibration standard, or quality material standard were pipetted into separate microcentrifuge tubes and mixed with 100 μL of methanol. Samples were vortexed and centrifuged at 13,000 rpm for 4 min. The supernatant was then injected into the HPLC.
# (§3) The flow rate was 1.2 mL/min and total run time was 25 min.
# [2] = tested on: ethoxyresorufin O-deethylase (EROD) activity (CYP1A-like activity); experiment: EROD assay in zebrafish primary hepatocytes; conditions: zebrafish primary hepatocytes; DIM at concentrations of 2 μM and greater
# Experimental: as §1
# [3] = tested on: testosterone 6β-hydroxylation; experiment: testosterone hydroxylation (HPLC) in sea lamprey primary hepatocytes; format: cell-based; conditions: concentration ranges per compound
# Experimental: as §2, §3
# [4] = tested on: EROD activity; experiment: EROD assay in sea lamprey primary hepatocytes; conditions: 24–48 hr exposure
# [5] = tested on: 6β- and 12α-hydroxylation of testosterone; experiment: testosterone hydroxylation (HPLC) in African clawed frog primary hepatocytes; format: cell-based, Xenopus laevis; conditions: relative to vehicle control
# Experimental: Xenopus laevis primary hepatocytes were cultured by a protocol adapted from a published report. Frogs are sacrificed with MS-222, rinsed with 70% ethanol, and the liver lobes perfused via the heart, initially with 375 mL Barth (88 mM NaCl, 1 mM K2SO4, and 10 mM HEPES-NaOH, pH 7.4) containing 0.82 mM MgCl2 and 0.1 mg/mL heparin, and then with 25 mL Barth containing 2.22 mM Ca(NO3)2, 2.74 mM CaCl2, and 200 U/mL type I collagenase (Worthington Chemicals, Lakewood, NJ). Livers are minced to fine pieces in 12.5 mL Barth-collagenase solution and then incubated for 10 min at room temperature, periodically disaggregating the liver pieces with a Pasteur pipette. The liver cells are then placed on a shaking incubator for 5 min at room temperature, followed by another 10 min of periodic pipetting to complete disaggregation. Cells are then filtered through a 130 μm Nitex nylon mesh (Fisher Scientific), following by spinning at 500 g for 5 min at 4°C. The supernatant is then aspirated and diluted to 50 mL with Barth plus MgCl2 and then allowed to settle while cooled in ice for 30 min. The supernatant is removed, and the cellular pellet is resuspended and subjected to one more round of nylon mesh filtration, dilution in Barth plus MgCl2, and settling while cooled in ice. The supernatant is removed and the remaining cells are washed once with Barth plus MgCl2 and then centrifuged at 500 g for 5 min at 4°C. The cells are then resuspended in 0.6 × Coon's Modified Ham's F-12 medium (Invitrogen) supplemented with 0.1 × Barth (88 mM NaCl, 1 mM K2SO4, 10 mM HEPES), 200 U/mL penicillin G, 100 μg/mL streptomycin sulfate, 2 mM glutamine, 0.2% glucose, and 10 μg/mL bovine insulin (Calbiochem), with the final pH adjusted to 7.5. […] Cells are cultured at 20°C in ambient atmosphere.
# Testosterone metabolites were identified and quantitated by HPLC. […] The supernatant was then injected into the HPLC.
# [6] = tested on: MDR1 (tentatively classified as ABCB5 in zebrafish); experiment: zebrafish in vivo liver transcription, semi-quantitative RT-PCR: MDR1; conditions: zebrafish, 15 mg/kg intraperitoneally, single dose, 48 hr
# Experimental: (§4) Adult zebrafish were purchased from a commercial fish supplier and acclimatized for at least two-weeks in 20 L tanks with flow-through freshwater at 22°C. A single dose of 15 mg/kg of 5α-cyprinol, 5β-cyprinol 27-sulfate, 5α-scymnol or 5β-scymnol-27 sulfate, dissolved in saline, was injected intraperitoneally. A control group was injected with saline. After 48 hr, the animals were decapitated and livers of three fish (n = 5 each group) were removed, pooled and weighed, totalizing 15 fish per group. Fish were not fed throughout the experimental period. […].
# (§5) To study the transcription of CYP3C1, ABCB5, PXR, GAPDH and β-actin genes in zebrafish, initial fragments of these genes were identified (Genbank: AW202769, Genbank: BQ284593, Genbank: AAM22215, Genbank: BC083506, Genbank: AF057040, respectively). The PCR primers for CYP3C1 were designed using MacVector Software and primers for MDR1 were designed using Primer 3 Software (Whitehead Institute for Biomedical Research; [75]). Primer pairs for amplifying CYP3C1 fragment were 5'-[…]-3' (sense) and 5'-[…]-3' (antisense) and for amplifying ABCB5 were 5'-[…]-3' (sense) and 5'-[…]-3' (antisense). The PCR primers for PXR were 5'-[…]-3' (sense) and 5'-[…]-3' (antisense), for amplifying GAPDH were 5'-[…]-3' (sense) and 5' […] 3' (antisense) and for β-actin were 5'-[…]-3' (sense) and 5'-[…]-3' (antisense). RNA was isolated using Trizol (Invitrogen) according to manufacturer's instructions. Purity and concentration of RNA of each sample were verified at 260 nm. The RNA integrity was checked by non-denaturing gel electrophoresis using 1 μg of total RNA in each sample.
# (§6) Two micrograms of total RNA were reversed transcribed using Ominiscript RT Kit (Qiagen, Valencia, CA, USA). cDNA concentration was checked at 260 nm, and the amount adjusted to 1 μg to perform semi-quantitative RT-PCR. The expected size of the PXR, Cyp3C1, abcb5, GAPDH and β-actin fragments were 577, 477, 218, 234 and 550 bp, respectively. Biotools DNA polymerase (Biotools B&M Labs, S.A., Madrid, Spain) kit was used for the PCR reaction using a thermocycler Personal Mastercycler (Eppendörf) with the following PCR program: 5 cycles of 94°C for 5 s, 72°C for 35 s; 5 cycles of 94°C for 5 s, 70°C for 10 s, 72°C for 35 s; and 23, 24, 35, 15 and 24 cycles (PXR, Cyp3C1, abcb5, GAPDH and β-actin, respectively) of 94°C for 5 s, 61, 54, 48, 49 and 61°C for 10 s (PXR, Cyp3C1, abcb5, GAPDH and β-actin, respectively), and 72°C for 35 s. The PXR, CYP3C1, ABCB5 and GAPDH transcript levels were quantified using Gel-Quant™ (Multiplexed Biotechologies) and β-actin was used to normalize the data. The Shapiro-Wilk W test was used to evaluate normality. When data were parametric the analysis was performed using Student t test; otherwise Mann Whitney U test was applied. […]
# [7] = tested on: PXR; experiment: zebrafish in vivo liver transcription, semi-quantitative RT-PCR: PXR; conditions: zebrafish, 15 mg/kg intraperitoneally, single dose, 48 hr
# Experimental: as §4, §5, §6
# [8] = biological target: T1, Sea lamprey VDR (Petromyzon marinus, UniProt Q7ZZY9); format: cell-based; conditions: screening for activators, at least three concentrations of each drug
# T1 sequence (Q7ZZY9 92-406): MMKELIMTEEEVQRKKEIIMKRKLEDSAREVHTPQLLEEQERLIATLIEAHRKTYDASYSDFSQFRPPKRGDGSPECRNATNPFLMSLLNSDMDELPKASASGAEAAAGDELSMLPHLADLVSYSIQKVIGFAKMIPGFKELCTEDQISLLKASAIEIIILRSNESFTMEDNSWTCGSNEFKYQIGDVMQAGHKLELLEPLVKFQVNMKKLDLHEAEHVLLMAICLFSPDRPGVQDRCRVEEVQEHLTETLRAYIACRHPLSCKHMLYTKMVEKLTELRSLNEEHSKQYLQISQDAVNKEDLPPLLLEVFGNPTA
# [9] = tested on: zebrafish PXR; conditions: ref [29],[53]; cited from earlier work
# [10] = biological target: T2, Xenopus laevis VDR (Xenopus laevis, UniProt O13124); experiment: luciferase reporter transactivation assay in HepG2-NTCP cells, GAL4/xlVDR LBD chimera with tk-UAS-Luc; format: cell-based; conditions: screening for activators, at least three concentrations of each drug
# T2 sequence (O13124 90-422): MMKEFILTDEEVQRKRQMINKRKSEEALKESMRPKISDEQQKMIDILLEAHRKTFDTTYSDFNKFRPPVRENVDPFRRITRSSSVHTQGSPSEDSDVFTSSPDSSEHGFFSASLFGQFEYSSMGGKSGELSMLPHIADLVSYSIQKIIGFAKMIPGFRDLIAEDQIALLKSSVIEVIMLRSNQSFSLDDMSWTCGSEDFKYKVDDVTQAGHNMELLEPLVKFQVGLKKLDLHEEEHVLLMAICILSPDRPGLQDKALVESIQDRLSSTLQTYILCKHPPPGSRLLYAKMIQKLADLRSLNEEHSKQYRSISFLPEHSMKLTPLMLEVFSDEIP
# [11] = tested on: glyceraldehyde 3-phosphate dehydrogenase (GAPDH); experiment: zebrafish in vivo liver transcription, semi-quantitative RT-PCR: GAPDH; conditions: 15 mg/kg intraperitoneally, single dose, 48 hr
# Experimental: Adult zebrafish were purchased from a commercial fish supplier and acclimatized for at least two-weeks in 20 L tanks with flow-through freshwater at 22°C. A single dose of 15 mg/kg of 5α-cyprinol, 5β-cyprinol 27-sulfate, 5α-scymnol or 5β-scymnol-27 sulfate, dissolved in saline, was injected intraperitoneally. A control group was injected with saline. After 48 hr, the animals were decapitated and livers of three fish (n = 5 each group) were removed, pooled and weighed, totalizing 15 fish per group. Fish were not fed throughout the experimental period.
# as §5, with “The PCR primers for CYP3C1 were designed using MacVector Software and primers for MDR1 were designed using Primer 3 Software (Whitehead Institute for Biomedical Research; [75]).” left out, “Purity and concentration of RNA of each sample were verified at 260 nm.” left out
# The PXR, CYP3C1, ABCB5 and GAPDH transcript levels were quantified using Gel-Quant™ (Multiplexed Biotechologies) and β-actin was used to normalize the data. The Shapiro-Wilk W test was used to evaluate normality. When data were parametric the analysis was performed using Student t test; otherwise Mann Whitney U test was applied.
# [12] = biological target: T3, Zebrafish VDR (Danio rerio, UniProt Q9PTN2); experiment: luciferase reporter transactivation assay in HepG2-NTCP cells, GAL4/zfVDR LBD chimera with tk-UAS-Luc; format: cell-based; conditions: screening for activators, at least three concentrations of each drug
# T3 sequence (Q9PTN2 121-453): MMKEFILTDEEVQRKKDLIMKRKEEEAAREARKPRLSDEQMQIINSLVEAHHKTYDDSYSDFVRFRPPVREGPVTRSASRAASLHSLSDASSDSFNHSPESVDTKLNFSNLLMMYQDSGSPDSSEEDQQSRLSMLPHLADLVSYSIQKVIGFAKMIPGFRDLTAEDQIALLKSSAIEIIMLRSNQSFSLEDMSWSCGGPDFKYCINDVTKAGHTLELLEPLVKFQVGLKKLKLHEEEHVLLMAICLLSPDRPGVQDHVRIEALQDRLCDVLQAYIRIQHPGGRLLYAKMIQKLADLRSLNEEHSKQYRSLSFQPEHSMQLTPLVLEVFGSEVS
# [13] = tested on: β-actin; experiment: zebrafish in vivo liver transcription, semi-quantitative RT-PCR: β-actin; conditions: zebrafish, 15 mg/kg intraperitoneally, single dose, 48 hr
# Experimental: as §4, §5, §6
# [14] = tested on: CYP3C1; experiment: zebrafish in vivo liver transcription, semi-quantitative RT-PCR: CYP3C1; conditions: zebrafish, 15 mg/kg intraperitoneally, single dose, 48 hr
# Experimental: as §4, §5, §6
Compound,effect on testosterone 6β-hydroxylation [3],effect on EROD activity [4],effect on 6β- and 12α-hydroxylation of testosterone [5],Effect on sea lamprey VDR [8],Effect on Xenopus laevis VDR [10],Effect on zebrafish VDR [12],also measured
"C=C1/C(=C\C=C2/CCC[C@]3(C)[C@@H]([C@H](C)CCCC(C)(C)O)CC[C@@H]23)C[C@@H](O)C[C@@H]1O [1,25-(OH)2-Vitamin D3, 1α,25-(OH)2-vitamin D3]",None of these compounds produced significant increases in testosterone 6β-hydroxylation,did not alter EROD activity,neither activity was substantially increased relative to vehicle control,,,,"effect on 6β-hydroxylation of testosterone ([1]; zebrafish primary hepatocytes, calcitriol 1–500 nM): did not increase 6β-hydroxylation of testosterone; effect on EROD activity [2]: found not to affect EROD activity"
CCOC(=O)c1cccc(N)c1 [3-aminoethylbenzoate],,,neither activity was substantially increased relative to vehicle control,,,,
CC(CCC(O)C(CO)COS(=O)(=O)O)C1CCC2C3C(O)CC4CC(O)CCC4(C)C3CC(O)C12C (stereo not drawn) [5β-scymnol 27-sulfate],,,,No effect,No effect,No effect,liver transcription of MDR1 (ABCB5) [6]: 1.50 ± 0.58 arbitrary units normalized to β-actin; liver transcription of PXR [7]: 0.75 ± 0.33 arbitrary units normalized to β-actin; activity at recombinant zebrafish PXR [9]: weaker activator of recombinant zebrafish PXR; liver transcription of GAPDH [11]: 1.08 ± 0.50 arbitrary units normalized to β-actin; liver transcription of β-actin [13]: 39.3 ± 17.5 arbitrary units; liver transcription of CYP3C1 [14]: 1.33 ± 0.58 arbitrary units normalized to β-actin
C[C@@H]1C[C@H]2[C@@H]3CCC4=CC(=O)C=C[C@]4(C)[C@@]3(F)[C@@H](O)C[C@]2(C)[C@@]1(O)C(=O)CO [Dexamethasone],None of these compounds produced significant increases in testosterone 6β-hydroxylation,,neither activity was substantially increased relative to vehicle control,,,,
"C[C@@]12CCC[C@H]1[C@@H]1CC[C@H]3C[C@H](O)CC[C@]3(C)[C@H]1CC2 [androstanol, 5α-androstan-3α-ol]",None of these compounds produced significant increases in testosterone 6β-hydroxylation,did not alter EROD activity,,No effect,No effect,No effect,"EC50 ([1]; zebrafish): 20 ± 2.7 µM; maximal rate of testosterone 6β-hydroxylation ([1]; zebrafish primary hepatocytes, 48-hour exposure): 717 pmol/min/mg protein"
